# Laboratory results taken from paper PMC5748833, “Synthesis and Biological Evaluation of Novel Hybrid Molecules Containing Purine, Coumarin and Isoxazoline or Isoxazole Moieties” (The Open Medicinal Chemistry Journal, 2017).
# Where “and” joins values, the source holds several entries; their conditions need not be identical. Identical values can stand only once.
# Legend:
# [1] = Inhibition of linoleic acid lipid peroxidation (AAPH); conditions: 100 μM compound, 37°C
# Protocol: 2.2.2.3 Inhibition of linoleic acid lipid peroxidation
# Production of conjugated diene hydroperoxide by oxidation of linoleic acid sodium salt in an aqueous solution was monitored at 234 nm. 2,2’-Azobis(2-amidinopropane) dihydrochloride (AAPH) was used as a free radical initiator. 10 μl of the 16 mM linoleic acid sodium salt solution was added to the UV cuvette containing 0.93 ml of 0.05 M phosphate buffer, pH 7.4 prethermostated at 37°C. The oxidation reaction was initiated at 37°C under air by the addition of 50 μl of 40 mM AAPH solution. Oxidation was carried out in the presence of 10 μl of the examined compounds (stock solution in DMSO). In the assay without antioxidant, lipid oxidation was measured in the presence of the same level of DMSO. The rate of oxidation at 37°C was monitored by recording the increase in absorption at 234 nm caused by conjugated diene hydroperoxides (Table 5). Trolox was used as a standard.
# Anti-lipid peroxidation activity. The water-soluble azo compound AAPH has been extensively used as a clean and controllable source of thermally produced alkyl peroxyl free radicals, through spontaneous thermal decomposition. […] In the AAPH assay, the highly reactive alkylperoxyl radicals are intercepted mainly by a hydrogen atom transfer (HAT) from the antioxidant.
# rat monoamine oxidase A = molecular target: T1, rat monoamine oxidase A (Rattus norvegicus, UniProt P21396); assay: Inhibition of MAO-A (spectrofluorimetric method); format: biochemical; conditions: 10 μM compound
# T1 construct: from tissue
# T1 sequence (P21396 1-526): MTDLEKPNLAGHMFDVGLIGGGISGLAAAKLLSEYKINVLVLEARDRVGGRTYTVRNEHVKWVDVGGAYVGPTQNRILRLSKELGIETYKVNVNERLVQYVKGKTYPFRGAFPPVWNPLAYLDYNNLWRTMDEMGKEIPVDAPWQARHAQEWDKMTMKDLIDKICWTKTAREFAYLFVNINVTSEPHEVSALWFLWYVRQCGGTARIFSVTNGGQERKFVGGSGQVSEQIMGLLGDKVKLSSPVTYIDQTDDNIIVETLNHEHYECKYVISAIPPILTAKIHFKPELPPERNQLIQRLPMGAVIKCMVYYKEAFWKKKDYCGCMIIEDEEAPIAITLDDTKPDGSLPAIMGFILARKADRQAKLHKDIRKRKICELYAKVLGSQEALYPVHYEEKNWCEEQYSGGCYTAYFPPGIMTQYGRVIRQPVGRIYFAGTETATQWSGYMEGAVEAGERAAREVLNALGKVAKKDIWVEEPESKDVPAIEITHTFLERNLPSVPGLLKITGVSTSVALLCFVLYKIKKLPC
# Excerpt: (§1) 2.2.2.6 Inhibition Study on MAOs in vitro
# (§2) Inhibition of rat monoamine oxidase A and B was studied by means of a spectrofluorimetric method as previously detailed.
# [2] = molecular target: T2, electric eel acetylcholinesterase (eeAChE) (Electrophorus electricus, UniProt O42275); assay: biochemical; format: biochemical; conditions: for IC50: read-out: eeAChE IC50 μΜ; for inhibition at 10 µM: read-out: eeAChE % inhibn. @ 10 μΜ
# T2 construct: purchased Sigma
# T2 sequence (O42275 24-633): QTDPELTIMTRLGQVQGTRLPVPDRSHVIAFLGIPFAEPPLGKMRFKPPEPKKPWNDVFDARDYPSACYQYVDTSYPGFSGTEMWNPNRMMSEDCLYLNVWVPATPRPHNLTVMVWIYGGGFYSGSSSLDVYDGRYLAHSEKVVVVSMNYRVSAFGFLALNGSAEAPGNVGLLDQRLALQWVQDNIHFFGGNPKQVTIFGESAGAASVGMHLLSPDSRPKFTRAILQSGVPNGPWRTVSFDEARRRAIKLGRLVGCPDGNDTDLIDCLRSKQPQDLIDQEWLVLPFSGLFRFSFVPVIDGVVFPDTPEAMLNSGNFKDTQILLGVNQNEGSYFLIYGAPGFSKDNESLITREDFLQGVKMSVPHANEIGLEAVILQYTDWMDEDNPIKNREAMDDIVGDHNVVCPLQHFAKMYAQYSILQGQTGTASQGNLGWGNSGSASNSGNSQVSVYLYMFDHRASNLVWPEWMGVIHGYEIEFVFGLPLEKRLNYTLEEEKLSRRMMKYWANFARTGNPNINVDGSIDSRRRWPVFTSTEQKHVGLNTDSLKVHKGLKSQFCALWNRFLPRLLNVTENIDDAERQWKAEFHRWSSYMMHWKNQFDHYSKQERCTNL
# Excerpt: (§3) 2.2.2.5 Inhibition Study on ChEs in vitro
# (§4) In vitro inhibition of electric eel acetylcholinesterase (eeAChE; 463 U/mg, Sigma) and equine serum butyrylcholinesterase (esBChE; 13 U/mg, Sigma) was investigated with a 96-well plate procedure based on the classical Ellman’s spectrophotometric test, as already described.
# rat monoamine oxidase B = molecular target: T3, rat monoamine oxidase B (Rattus norvegicus, UniProt P19643); assay: Inhibition of MAO-B (spectrofluorimetric method); format: biochemical; conditions: 10 μM compound
# T3 construct: from tissue
# T3 sequence (P19643 1-520): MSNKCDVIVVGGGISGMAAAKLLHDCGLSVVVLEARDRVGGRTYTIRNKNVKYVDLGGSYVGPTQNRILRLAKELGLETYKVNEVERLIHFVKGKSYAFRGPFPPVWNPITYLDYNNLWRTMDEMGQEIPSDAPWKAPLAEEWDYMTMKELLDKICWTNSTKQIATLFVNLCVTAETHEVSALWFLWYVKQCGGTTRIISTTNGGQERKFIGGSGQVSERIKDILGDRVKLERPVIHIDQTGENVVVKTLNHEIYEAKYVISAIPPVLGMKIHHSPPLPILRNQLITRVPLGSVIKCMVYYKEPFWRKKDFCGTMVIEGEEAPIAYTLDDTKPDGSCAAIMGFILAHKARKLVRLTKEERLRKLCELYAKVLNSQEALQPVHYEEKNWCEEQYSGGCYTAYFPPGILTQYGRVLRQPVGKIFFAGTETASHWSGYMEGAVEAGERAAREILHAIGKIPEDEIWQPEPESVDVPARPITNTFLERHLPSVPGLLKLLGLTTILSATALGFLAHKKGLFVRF
# Excerpt: as §1, §2
# [3] = molecular target: T4, equine serum butyrylcholinesterase (esBChE) (Equus caballus, UniProt P81908); assay: Inhibition of esBChE (Ellman's test); format: biochemical; conditions: for inhibition at 10 µM: read-out: esBChE % inhibn. @ 10 μΜ
# T4 construct: purchased Sigma; host or cells: equine serum
# T4 sequence (P81908 whole entry): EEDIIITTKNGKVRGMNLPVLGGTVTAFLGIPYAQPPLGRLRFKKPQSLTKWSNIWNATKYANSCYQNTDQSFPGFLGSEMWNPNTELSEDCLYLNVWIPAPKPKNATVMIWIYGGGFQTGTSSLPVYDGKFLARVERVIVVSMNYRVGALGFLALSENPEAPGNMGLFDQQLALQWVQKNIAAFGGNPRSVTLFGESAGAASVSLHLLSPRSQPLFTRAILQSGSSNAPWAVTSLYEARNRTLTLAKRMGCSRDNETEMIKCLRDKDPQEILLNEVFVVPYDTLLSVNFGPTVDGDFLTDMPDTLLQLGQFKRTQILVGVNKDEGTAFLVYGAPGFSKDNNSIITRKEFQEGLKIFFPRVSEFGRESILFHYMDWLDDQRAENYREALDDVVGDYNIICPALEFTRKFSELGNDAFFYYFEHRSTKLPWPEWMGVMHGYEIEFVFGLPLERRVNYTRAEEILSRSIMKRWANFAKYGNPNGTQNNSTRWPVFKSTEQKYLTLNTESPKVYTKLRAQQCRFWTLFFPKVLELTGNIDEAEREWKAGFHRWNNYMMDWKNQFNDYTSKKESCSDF
# Excerpt: as §3, §4
# soybean lipoxygenase = molecular target: T5, soybean lipoxygenase (Glycine max, UniProt P08170); assay: Soybean lipoxygenase inhibition in vitro; format: biochemical; conditions: for IC50: read-out: LOX IC50 μΜ; for inhibition at 100 µM: read-out: %LOX @ 100μΜ; for %LOX @ 100μΜ: 100 μM compound
# T5 construct: purchased Sigma Chemical, Co. (St. Louis, MO, USA)
# T5 sequence (P08170 1-839): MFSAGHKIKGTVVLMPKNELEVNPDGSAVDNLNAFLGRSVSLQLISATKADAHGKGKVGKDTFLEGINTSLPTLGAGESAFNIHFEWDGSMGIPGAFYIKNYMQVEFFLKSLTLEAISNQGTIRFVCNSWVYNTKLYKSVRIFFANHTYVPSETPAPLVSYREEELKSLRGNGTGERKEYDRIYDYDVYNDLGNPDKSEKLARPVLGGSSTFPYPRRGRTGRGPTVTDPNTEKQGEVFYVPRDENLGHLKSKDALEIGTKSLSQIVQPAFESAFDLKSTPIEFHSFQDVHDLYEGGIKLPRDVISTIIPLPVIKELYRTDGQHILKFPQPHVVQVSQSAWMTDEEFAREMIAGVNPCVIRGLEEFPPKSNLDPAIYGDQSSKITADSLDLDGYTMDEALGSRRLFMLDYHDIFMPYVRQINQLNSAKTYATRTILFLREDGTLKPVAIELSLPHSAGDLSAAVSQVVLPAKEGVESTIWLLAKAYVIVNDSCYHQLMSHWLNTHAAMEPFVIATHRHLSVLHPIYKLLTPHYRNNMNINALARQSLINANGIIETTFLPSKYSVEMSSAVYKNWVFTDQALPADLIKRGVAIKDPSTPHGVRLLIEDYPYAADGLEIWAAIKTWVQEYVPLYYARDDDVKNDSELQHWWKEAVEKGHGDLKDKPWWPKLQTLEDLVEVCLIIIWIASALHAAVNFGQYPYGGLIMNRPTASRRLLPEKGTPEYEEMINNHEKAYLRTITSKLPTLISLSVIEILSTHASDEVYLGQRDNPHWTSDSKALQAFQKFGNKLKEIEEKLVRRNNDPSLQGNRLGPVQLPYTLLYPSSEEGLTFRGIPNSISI
# Protocol: 2.2.2.4 Soybean lipoxygenase inhibition study in vitro [14]
# In vitro study was evaluated as reported previously. The tested compounds dissolved in ethanol were incubated at room temperature with sodium linoleate (0.1 mM) and 0.2 ml of enzyme solution (1/9 x10^-4 w/v in saline). […] Several concentrations were used for the determination of IC50 values (Table 5).
# LO is the key enzyme in leukotriene biosynthesis. Leukotrienes derived from the biotransformation of arachidonic acid catalyzed by 5-lipoxygenase (5-LO), are important inflammatory mediators implicated in several diseases. LOs play a role in membrane lipid peroxidation by forming hydroperoxides in the lipid bilayer. […] Most of the LO inhibitors are antioxidants or free radical scavengers, since lipoxygenation occurs via a carbon-centered radical. The evaluation of the novel coumarin hybrids against soybean lipoxygenase LO was accomplished by the UV-based enzyme assay.
# [4] = Reducing activity of the stable radical DPPH; conditions: 100 μM compound, after 20 min
# Protocol: 2.2.2.1 Determination of the reducing activity of the stable radical 1, 1-diphenyl-picrylhydrazyl (DPPH)
# To a solution of DPPH (100μM) in absolute ethanol an equal volume of the compounds dissolved in ethanol was added. As control solution ethanol was used. The concentration of the solutions of the compounds was 100μM. After 20 and 60 min at room temperature the absorbance was recorded at 517 nm (Table 5). NDGA was used as a standard.
# The compounds were studied for their antioxidant activity by the use of the stable 2,2-diphenyl-1-picrylhydrazyl radical (DPPH) at concentration 0.1mM after 20 min. […] This purple colour generally disappears in the presence of an antioxidant. The reduction of absorbance is a measure of the free DPPH due to the action of the antioxidant. The antioxidant activity was expressed as the RA% (Reducing Activity). […] Within the group of derivatives 4 the presence of the morpholinyl or piperidinyl rings at position A as well as the carbonyl group at position B, hinder the interaction of the compounds to the free stable radical DPPH.
SMILES,LP % @ 100μΜ (inhibition of lipid peroxidation) [1],MAO-A (%) @ 10μΜ (rat monoamine oxidase A),IC50 [2],MAO-B (%) @ 10μΜ (rat monoamine oxidase B),inhibition at 10 µM [3],IC50 (soybean lipoxygenase),inhibition at 100 µM (soybean lipoxygenase),%LOX @ 100μΜ (soybean lipoxygenase),inhibition at 10 µM [2],"RA% @ 100μΜ (reducing activity, DPPH) [4]",IC50 ([3]; read-out: esBChE IC50 μΜ)
Cc1cc(=O)oc2ccc(OCC3CC(Cn4cnc5c(N6CCOCC6)ncnc54)=NO3)cc12 (stereo not drawn) [4b],no,no,2.3 µM,24%,17%,60 µM,–,–,–,–,–
Cc1cc(=O)oc2cc(OCCC3CC(Cn4cnc5c(N6CCOCC6)ncnc54)=NO3)ccc12 (stereo not drawn) [4i],54%,25%,7.7 µM,no,15%,–,2%,–,–,–,–
Cc1cc(=O)oc2cc(OCC3=NOC(Cn4cnc5c(Cl)ncnc54)C3)ccc12 (stereo not drawn) [11e],63%,no,7.8 µM,9%,8%,–,–,no,–,–,–
Cc1cc(=O)oc2cc(OCC3=NOC(Cn4cnc5c(N6CCOCC6)ncnc54)C3)ccc12 (stereo not drawn) [11f],48%,16%,–,8%,14%,–,–,no,43%,–,–
"Cc1cc(=O)oc2ccc(OCc3cc(Cn4cnc5c(N6CCCCC6)ncnc54)no3)cc12 [13a, 4-methyl-6-({3-[(6-piperidin-1-yl-9H-purin-9-yl)methyl]isoxazol-5-yl}methoxy)-2H-chromen-2-one]",–,47%,–,33%,23%,–,–,no,40%,no,–
Cc1cc(=O)oc2ccc(OCc3cc(Cn4cnc5c(N6CCOCC6)ncnc54)no3)cc12 [13b],–,12%,3.1 µM,no,13%,–,44%,–,–,no,–
O=c1ccc2ccc(OCc3cc(Cn4cnc5c(N6CCCCC6)ncnc54)no3)cc2o1 [13e],–,18%,1.73 µM,15%,–,62.5 µM and 62 µM,–,–,–,no,18 µM
